One experiment has as its target T1, CDK1 (Homo sapiens, UniProt P06493).
T1 construct: purchased New England Biolabs, Beverly, Mass; 6020; host or cells: insect cells
The experiment in a line: CDK-1 kinase screening assay (33P-ATP FlashPlate). The conditions noted are these: human CDK1 with cyclin B; 10 μM ATP; 1 hr at 30° C. The format is biochemical. How it is done:
A kinase reaction mixture was prepared containing 50 mM Tris-HCl pH=8, 10 mM MgCl2, 0.1 mM […], 1 mM DTT, 10 μM ATP, 0.025 μM biotinylated histone-H1 peptide substrate and 0.2 μCuries per well ^33P-γ-ATP (2000-3000 Ci/mmol). 70 μL of the kinase reaction mixture was dispensed into the well of a streptavidin coated FlashPlate™ (Cat. # SMP103, NEN, Boston, Mass.).
Test compound stock in 100% DMSO (1 μL) was added to the wells resulting in a final concentration of 1% DMSO in the reaction with a 100 μL final reaction volume. Each enzyme was diluted in 50 mM Tris-HCl pH=8.0, 0.11% BSA and 30 μL was added to each well to initiate the reaction. The reaction was incubated for one hour at 30° C. At the end of the 1 hr incubation, the reaction was terminated by aspirating the mixture from the plate and washing the wells twice with PBS containing 100 mM EDTA. The biotinylated peptide substrate became immobilized on the Flashplate™ and the incorporation of ^33P-γ-ATP was measured by reading the plate on a scintillation counter. Inhibition of the enzymatic activity was measured by observing a reduced amount of ^33P-γ-ATP incorporated into the immobilized peptide.
The CDK1 enzyme was isolated from insect cells expressing both the human CDK1 catalytic subunit (Accession number NM_001786) and its positive regulatory subunit cyclin B (New England Biolabs, Beverly, Mass.; Cat. # 6020). The assay used 30 ng of the N-terminal biotinylated peptide biotin-[…]-amide (Cyclin dependent kinase 1) per well.
A maximum and minimum signal for the assay was determined on each plate. The percent inhibition of a test compound was calculated according to the formula: […]
For a series of test concentrations, the IC50 was derived by graphing percent inhibition against the log of the concentrations tested for a given compound with results shown in Table 1.
For compounds with multiple values, each value represents a separate assay result.

For the next experiment, the target named is T2, VEGF-R2 (Rattus norvegicus, UniProt O08775).
T2 construct: polyhistidine (N)
Kind of experiment: VEGF-R2 kinase screening assay (33P-ATP FlashPlate).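 Also: Read-out is ³³P incorporation from ³³P-γ-ATP into biotinylated peptide substrate captured on streptavidin FlashPlate, counted by scintillation, 1% DMSO final, inhibition scaled between per-plate maximum and minimum signals.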 The format is biochemical. The note with it: rat VEGF-R2 kinase domain; 10 μM ATP; 1 hr at 30° C.

A further experiment deals with T3, HER2 (Homo sapiens, UniProt P04626).
T3 construct: GST (Glutathione-S-Transferase) (N); HIS6 (N); thrombin cleavage site (N); purchased Proqinase, Freiburg, Germany
The experiment in a line: HER2 kinase screening assay (33P-ATP FlashPlate).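 Also: Biotin-poly(GT) 4:1 peptide captured on streptavidin FlashPlate, 33P transfer from γ-ATP read by scintillation counting, lower incorporation means inhibition, 1% DMSO final, 100 µL reaction.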 The format is biochemical. The note with it: GST-HIS6 HER-2 aa 679 to 1255; 10 μM ATP; 1 hr at 30° C.

For another experiment, the target named is T4, Aurora-A (Mus musculus, UniProt P97477).
T4 construct: polyhistidine (N)
T4 sequence (P97477 1-395): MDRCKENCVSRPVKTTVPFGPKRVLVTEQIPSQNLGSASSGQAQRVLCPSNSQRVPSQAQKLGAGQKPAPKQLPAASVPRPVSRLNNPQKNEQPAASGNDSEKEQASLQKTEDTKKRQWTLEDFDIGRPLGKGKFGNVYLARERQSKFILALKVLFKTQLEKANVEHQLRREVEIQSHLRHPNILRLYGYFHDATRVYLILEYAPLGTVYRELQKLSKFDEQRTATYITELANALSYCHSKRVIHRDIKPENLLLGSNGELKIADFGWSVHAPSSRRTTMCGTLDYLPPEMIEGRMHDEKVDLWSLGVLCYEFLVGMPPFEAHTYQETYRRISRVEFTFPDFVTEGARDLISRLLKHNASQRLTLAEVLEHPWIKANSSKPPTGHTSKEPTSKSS
The experiment in a line: Aurora-A kinase screening assay (33P-ATP FlashPlate).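 Also: His-tagged mouse Aurora-A phosphorylating a biotinylated peptide captured on streptavidin plates, read as 33P uptake by scintillation counting, 1% DMSO, inhibition scaled between per-plate maximum and minimum signals.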 The format is biochemical. The conditions noted are these: 10 μM ATP, 1 hr at 30° C.

In a further experiment the target is T5, RET (Homo sapiens, UniProt P07949).
T5 construct: polyhistidine (N)
T5 sequence (P07949 658-1114 limits assumed): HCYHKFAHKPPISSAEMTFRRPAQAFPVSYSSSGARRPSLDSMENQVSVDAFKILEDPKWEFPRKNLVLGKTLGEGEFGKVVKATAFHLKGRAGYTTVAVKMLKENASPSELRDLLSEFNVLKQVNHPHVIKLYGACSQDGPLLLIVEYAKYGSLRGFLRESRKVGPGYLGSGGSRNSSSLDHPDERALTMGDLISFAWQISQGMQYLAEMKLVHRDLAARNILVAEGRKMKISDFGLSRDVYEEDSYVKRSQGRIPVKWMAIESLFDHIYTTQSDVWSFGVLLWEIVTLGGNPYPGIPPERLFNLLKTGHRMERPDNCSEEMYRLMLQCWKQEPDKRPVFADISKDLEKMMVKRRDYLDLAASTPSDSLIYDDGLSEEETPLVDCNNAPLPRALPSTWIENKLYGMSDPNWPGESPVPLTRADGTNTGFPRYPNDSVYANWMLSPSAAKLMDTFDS
Kind of experiment: RET kinase screening assay (33P-ATP FlashPlate).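 Also: biotinylated peptide substrate captured on streptavidin FlashPlate, 33P phosphate transfer read by scintillation counting, 1% DMSO, lower incorporation means inhibition, percent relative to per-plate maximum and minimum signals.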 The format is biochemical. The note with it: human RET kinase domain; 10 μM ATP; 1 hr at 30° C.

For experiment [1], the system named is HeLa cervical adenocarcinoma. Kind of experiment: Cell Proliferation Inhibition Assay (14C-thymidine incorporation), HeLa.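 Also: test compound in DMSO added to cells seeded in scintillating 96-well plates, DMSO-only wells as control, uptake of methyl 14C-thymidine into new DNA counted.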 The format is cell-based. The note with it: Homo sapiens, HeLa, HeLa cells. For orientation: Incorporation of labelled thymidine or its analogues reports DNA synthesis.
The subject of the next experiment is A375 malignant melanoma. Kind of experiment: Cell Proliferation Inhibition Assay (14C-thymidine incorporation), A375.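 Also: proliferation measured by radiolabelled thymidine uptake into new DNA, counted in scintillating 96-well plates, compound-treated wells compared with DMSO-only control wells.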 The format is cell-based. The conditions noted are these: Homo sapiens, A-375, A375 cells.
The next experiment has as its system HCT-116 colon carcinoma. The experiment in a line: Cell Proliferation Inhibition Assay (14C-thymidine incorporation), HCT-116.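 Also: proliferation measured as methyl 14C-thymidine uptake into new DNA, counted in 96-well scintillating microplates, compared with DMSO-only control wells.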 The conditions noted are these: Homo sapiens, HCT-116, HCT-116 cells. The format is cell-based.

Broadly, the IC50 is the concentration that gives 50% inhibition. Lower therefore signals higher potency.

T3 sequence (P04626 679-1255): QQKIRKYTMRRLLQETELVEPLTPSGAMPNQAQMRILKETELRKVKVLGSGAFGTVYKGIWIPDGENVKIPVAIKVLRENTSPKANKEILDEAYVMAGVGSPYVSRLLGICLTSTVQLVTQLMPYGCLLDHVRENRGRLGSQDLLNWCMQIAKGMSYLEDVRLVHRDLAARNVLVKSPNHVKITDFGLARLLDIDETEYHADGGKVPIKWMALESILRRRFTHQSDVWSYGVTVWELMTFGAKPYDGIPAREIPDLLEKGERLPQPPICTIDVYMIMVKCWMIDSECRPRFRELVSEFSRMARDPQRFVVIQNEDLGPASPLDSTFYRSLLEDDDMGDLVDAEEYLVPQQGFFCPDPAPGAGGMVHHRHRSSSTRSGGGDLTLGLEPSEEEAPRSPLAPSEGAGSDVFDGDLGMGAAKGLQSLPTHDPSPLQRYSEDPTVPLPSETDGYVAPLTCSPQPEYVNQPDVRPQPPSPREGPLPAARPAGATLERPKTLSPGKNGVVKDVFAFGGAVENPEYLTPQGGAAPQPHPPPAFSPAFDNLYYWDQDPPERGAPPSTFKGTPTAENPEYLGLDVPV
T2 sequence (O08775 786-1343): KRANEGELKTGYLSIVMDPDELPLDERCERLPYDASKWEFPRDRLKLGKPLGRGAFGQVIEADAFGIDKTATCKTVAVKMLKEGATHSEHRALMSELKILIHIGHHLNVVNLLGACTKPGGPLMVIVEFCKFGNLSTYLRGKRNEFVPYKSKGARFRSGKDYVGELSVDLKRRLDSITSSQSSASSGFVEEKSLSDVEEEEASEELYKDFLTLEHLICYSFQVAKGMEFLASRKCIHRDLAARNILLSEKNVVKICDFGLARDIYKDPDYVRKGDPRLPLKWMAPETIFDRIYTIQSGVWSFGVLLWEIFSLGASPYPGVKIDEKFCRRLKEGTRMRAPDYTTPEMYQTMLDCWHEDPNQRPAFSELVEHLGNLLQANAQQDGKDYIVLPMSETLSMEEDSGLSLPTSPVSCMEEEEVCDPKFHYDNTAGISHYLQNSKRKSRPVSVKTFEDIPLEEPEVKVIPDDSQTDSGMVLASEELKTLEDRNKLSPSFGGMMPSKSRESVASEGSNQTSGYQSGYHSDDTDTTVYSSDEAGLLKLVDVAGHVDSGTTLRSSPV
T1 sequence (P06493 whole entry): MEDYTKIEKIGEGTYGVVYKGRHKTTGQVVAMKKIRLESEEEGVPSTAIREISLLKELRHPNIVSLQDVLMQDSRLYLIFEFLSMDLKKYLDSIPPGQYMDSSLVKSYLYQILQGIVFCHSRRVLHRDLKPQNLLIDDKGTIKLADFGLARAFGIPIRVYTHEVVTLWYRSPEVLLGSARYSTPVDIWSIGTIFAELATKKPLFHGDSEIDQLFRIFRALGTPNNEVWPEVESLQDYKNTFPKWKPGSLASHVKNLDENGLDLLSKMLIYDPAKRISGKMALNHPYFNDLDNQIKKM
T1 sequence (P14635 whole entry partner): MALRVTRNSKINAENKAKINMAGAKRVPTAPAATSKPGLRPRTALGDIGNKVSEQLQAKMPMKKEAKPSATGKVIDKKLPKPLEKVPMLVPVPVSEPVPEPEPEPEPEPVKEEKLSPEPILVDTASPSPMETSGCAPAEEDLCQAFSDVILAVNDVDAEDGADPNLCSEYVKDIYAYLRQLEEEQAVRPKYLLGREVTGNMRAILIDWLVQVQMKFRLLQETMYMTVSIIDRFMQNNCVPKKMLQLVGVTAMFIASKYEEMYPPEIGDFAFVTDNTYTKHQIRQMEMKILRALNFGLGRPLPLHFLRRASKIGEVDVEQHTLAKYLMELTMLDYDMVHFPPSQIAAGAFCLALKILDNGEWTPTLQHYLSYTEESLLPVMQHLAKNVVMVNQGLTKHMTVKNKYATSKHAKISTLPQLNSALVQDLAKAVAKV

As for `COCCOCc1cccc2[nH]c(-c3n[nH]c4ncc(-c5cncc6ccccc56)cc34)nc12` [Cpd 14, 4-{3-[4-(2-methoxy-ethoxymethyl)-1H-benzoimidazol-2-yl]-1H-pyrazolo[3,4-b]pyridin-5-yl}-isoquinoline], the IC50 was 72.1 nM at CDK1; 4570 nM against VEGF-R2; more than 100000 nM against HER2; more than 1000 nM at Aurora-A; approximately 100000 nM on RET; 1000 nM in experiment [1]. The IC50 is 649 nM in the experiment on A375 malignant melanoma and 312 nM in the experiment on HCT-116 colon carcinoma.

In the case of `COCc1cccc2[nH]c(-c3n[nH]c4ncc(-c5cncnc5)cc34)nc12` [Cpd 68, 3-(4-methoxymethyl-1H-benzoimidazol-2-yl)-5-pyrimidin-5-yl-1H-pyrazolo[3,4-b]pyridine], the IC50 is 1280 nM against CDK1; 115 nM at VEGF-R2; more than 100000 nM against HER2; approximately 10000 nM at Aurora-A; more than 100000 nM on RET; 9910 nM in experiment [1]. For the same compound, the concentration for half-maximal inhibition (IC50) with A375 malignant melanoma is 160 nM; in the experiment with HCT-116 colon carcinoma, 325 nM.

Turning to `CN(C)CCNC(=O)c1cccc2[nH]c(-c3n[nH]c4ncc(-c5cncc6ccccc56)cc34)nc12` [Cpd 25, 2-(5-isoquinolin-4-yl-1H-pyrazolo[3,4-b]pyridin-3-yl)-1H-benzoimidazole-4-carboxylic acid (2-dimethylamino-ethyl)-amide], the 50% inhibitory concentration (IC50) against CDK1 is 113 nM; against VEGF-R2 it was approximately 100000 nM; at HER2, more than 10000 nM; against Aurora-A, more than 1000 nM; against RET, more than 100000 nM; in experiment [1], 3800 nM. The IC50 turned out to be 2020 nM in the experiment on A375 malignant melanoma and 1220 nM with HCT-116 colon carcinoma.

With `FC1(F)Oc2cc3nc(-c4n[nH]c5ncc(-c6cccnc6)cc45)[nH]c3cc2O1` [Cpd 98, 2,2-difluoro-6-(5-pyridin-3-yl-1H-pyrazolo[3,4-b]pyridin-3-yl)-5H-[1,3]dioxolo[4′,5′:4,5]benzo[1,2-d]imidazole], the IC50 against CDK1 was 6.6 nM; on VEGF-R2, more than 100 nM; at HER2, more than 100000 nM; against Aurora-A it was more than 10000 nM; against RET it was more than 100000 nM; in experiment [1] it was 1610 nM. For the same compound, the IC50 came to 1080 nM with A375 malignant melanoma and 943 nM in the experiment with HCT-116 colon carcinoma.

Regarding `COCc1cccc2[nH]c(-c3n[nH]c4ncc(-c5ccc(OC)nc5)cc34)nc12` [Cpd 63, 3-(4-methoxymethyl-1H-benzoimidazol-2-yl)-5-(6-methoxy-pyridin-3-yl)-1H-pyrazolo[3,4-b]pyridine], the IC50 against CDK1 was more than 10000 nM; against VEGF-R2, 319 nM; at HER2, more than 100000 nM; against Aurora-A, approximately 100000 nM; against RET it was more than 100000 nM; in experiment [1], 9960 nM. Moreover, the IC50 worked out at 76.3 nM in the experiment on A375 malignant melanoma and 120 nM with HCT-116 colon carcinoma.

`COCc1cccc2[nH]c(-c3n[nH]c4ncc(-c5ccc(N6CCOCC6)nc5)cc34)nc12` [Cpd 66, 3-(4-methoxymethyl-1H-benzoimidazol-2-yl)-5-(6-morpholin-4-yl-pyridin-3-yl)-1H-pyrazolo[3,4-b]pyridine]: the IC50 is more than 100000 nM against CDK1; 121 nM at VEGF-R2; more than 100000 nM against HER2; more than 1000 nM against Aurora-A; more than 100000 nM against RET; 1080 nM in experiment [1]. The IC50 came to 4.4 nM with A375 malignant melanoma and 20.4 nM in the experiment on HCT-116 colon carcinoma.

`CCOCCOCc1cccc2[nH]c(-c3n[nH]c4ncc(-c5cncc6ccccc56)cc34)nc12` [Cpd 16, 4-{3-[4-(2-ethoxy-ethoxymethyl)-1H-benzoimidazol-2-yl]-1H-pyrazolo[3,4-b]pyridin-5-yl}-isoquinoline]: the IC50 against CDK1 is 65.5 nM; against VEGF-R2, 60.7 nM; on HER2 it was more than 100000 nM; at Aurora-A it was more than 1000 nM; at RET, more than 1000 nM; in experiment [1] it was 632 nM. Moreover, the IC50 is 910 nM in the experiment on A375 malignant melanoma and 237 nM in the experiment on HCT-116 colon carcinoma.

On to `CCOC(=O)c1cncc(-c2cnc3[nH]nc(-c4nc5c(COC)cccc5[nH]4)c3c2)c1` [Cpd 70, 5-[3-(4-methoxymethyl-1H-benzoimidazol-2-yl)-1H-pyrazolo[3,4-b]pyridin-5-yl]-nicotinic acid ethyl ester], for which the IC50 against CDK1 is more than 100000 nM; against VEGF-R2, approximately 100000 nM; at HER2, more than 100000 nM; against Aurora-A it was approximately 100000 nM; against RET it was more than 100000 nM; in experiment [1] it was 1940 nM. Also, the half-maximal inhibitory concentration (IC50) in the experiment on A375 malignant melanoma came to 38.7 nM; in the experiment on HCT-116 colon carcinoma, 55.4 nM.

Turning to `COCc1cccc2[nH]c(-c3n[nH]c4ncc(-c5c[nH]c6ccccc56)cc34)nc12` [Cpd 39, 5-(1H-indol-3-yl)-3-(4-methoxymethyl-1H-benzoimidazol-2-yl)-1H-pyrazolo[3,4-b]pyridine], the IC50 against CDK1 is 1210 nM; against VEGF-R2, 266 nM; at HER2 it was more than 100000 nM; at Aurora-A, more than 1000 nM; at RET it was more than 100000 nM; in experiment [1] it was 1680 nM. Further, the IC50 with A375 malignant melanoma came out at 35.8 nM; in the experiment with HCT-116 colon carcinoma, 26 nM.

In the case of `COCc1cccc2[nH]c(-c3n[nH]c4ncc(-c5cncc(CN6CCOCC6)c5C)cc34)nc12` [Cpd 60, 3-(4-methoxymethyl-1H-benzoimidazol-2-yl)-5-(4-methyl-5-morpholin-4-ylmethyl-pyridin-3-yl)-1H-pyrazolo[3,4-b]pyridine], the IC50 against CDK1 was 471 nM; against VEGF-R2, 3050 nM; against HER2, approximately 100000 nM; against Aurora-A, approximately 1000 nM; at RET, more than 10000 nM; in experiment [1] it was 1600 nM. The values for the IC50 in the experiment on A375 malignant melanoma and in the experiment on HCT-116 colon carcinoma were 11.1 nM and 39.5 nM, respectively.

With `CN1CCN(c2ccc3[nH]c(-c4n[nH]c5ncc(-c6cccnc6)cc45)nc3c2)CC1` [Cpd 89, 3-[5-(4-methyl-piperazin-1-yl)-1H-benzoimidazol-2-yl]-5-pyridin-3-yl-1H-pyrazolo[3,4-b]pyridine], the IC50 was determined as 47.5 nM on VEGF-R2; 31800 nM against HER2; 225 nM against Aurora-A; 193 nM at RET; 617 nM in experiment [1]; 544 nM with A375 malignant melanoma. Also, in the experiment on HCT-116 colon carcinoma, the IC50 amounted to 423 nM.

For `CC(C)NCc1cccc2[nH]c(-c3n[nH]c4ncc(-c5cncc6ccccc56)cc34)nc12` [Cpd 13, isopropyl-[2-(5-isoquinolin-4-yl-1H-pyrazolo[3,4-b]pyridin-3-yl)-1H-benzoimidazol-4-ylmethyl]-amine], the IC50 is 12.8 nM against CDK1; approximately 1000 nM on VEGF-R2; more than 100000 nM on HER2; 3620 nM at Aurora-A; more than 100000 nM against RET; 134 nM in experiment [1]. Further, the values for the IC50 with A375 malignant melanoma and with HCT-116 colon carcinoma were 140 nM and 109 nM, respectively.

(Values after patent US7541367B2, “3-benzoimidazolyl-pyrazolopyridines useful in treating kinase disorders” (Janssen Pharmaceutica, N.V., priority 2005, dated 2009).)
